# Values joined by “and” are separate entries in the source; they are usually repeats but may differ in a detail not shown here. Equal entries are not always repeated.
# Legend:
# [1] = test system: dechlorinating bacteria known to convert PCE to ethene; assay: Set D: Efficiency by COD Analysis; format: cell-based, Dehalococcoides and Dehalobacter spp.
# Text: Efficiency may be defined as the percent of electron donor utilized for dechlorination, and may be calculated by dividing the pmoles of Chloride ion generated by the pmoles of electron donor consumed as measured by either Volatile Fatty Acid (VFA) analysis (Sets B, C, and G) or Chemical Oxygen Demand (COD) analysis (Set D and E). The Relative Efficiency of the electron donor utilization may be defined as the Efficiency of the Electron Donor divided by the Efficiency of the Lactate Control.
# The COD analysis calculates the utilization of electron donor by measuring the starting COD and the final COD taking the difference and converting mg/L to pmoles of electrons. The pmoles of electrons used for dechlorination was determined from the calculated Chloride produced leading to an Efficiency and Relative Efficiency of electron donor utilization as compared to lactate.
# [2] = test system: dechlorinating bacteria known to convert PCE to ethene; assay: Set G: Additional Yeast Metabolites and Polysaccharides as Nutrients, PCE dechlorination microcosms (kinetics, Relative Rate, paired t-test); format: cell-based, Dehalococcoides and Dehalobacter spp.
# Text: Certain contaminated materials (or sites) may contain indigenous microbial communities that are sufficient for complete bioremediation of contaminants. For such sites, there is no need to add microbes unless the indigenous microbes are genetically deficient in achieving the desired clean-up goals. For those sites that are microbiologically limited, microorganisms may be added to the contaminated materials (or sites). In one embodiment, the inoculum may be a mixed culture of halo-respiring bacteria that have been enriched to reach an optimal cell density. These mixed cultures of halo-respiring bacteria may be typically obtained from sediment samples from rivers, streams or any waterways. More specifically, the inoculum used in the Examples was originated from a Sangamon River sediment sample (Lodge Park, Piatt County, Ill.) See, e.g., Brennan, R. A., Sanford, R. A. and Werth, C. J. (2006). “Biodegradation of Tetrachloroethene by Chitin Fermentation Products in a Continuous Flow Column System.” Journal of Environ. Engr., June 665-673. This culture had grown for several years on PCE, anaerobic basal salts medium, Wolfe's vitamin solution and various electron donors including lactate (1-2 millimolar (mM)), formate (4 mM) and chitin using the Volatile Interface Transfer Apparatus (VITA) reactor system at the University of Illinois. Brennan, R. A., and Sanford, R. A. (2002). “Continuous steady-state method using Tenax for delivering tetrachloroethene to chlororespiring bacteria.” Appl. Environ. Microbiol., 68(3), 1464-1467. […] Using 16S rRNA gene-specific primers, both Dehalococcoides and Dehalobacter spp. were detected. Quantitative real-time PCR has been used to determine that approximately 1.65×10^7 Dehalococcoides gene copies were present per ml of culture.
# For purpose of this disclosure, each bottle may be started with a certain amount of PCE. At subsequent times each bottle may be sampled for the degradation daughter products of PCE, namely trichloroethene (TCE), cis-dichloroethene (DCE), vinyl chloride (VC) and ethene, etc. Trans-DCE and 1,1-DCE are also daughter products of PCE, but they may not be detectable under the conditions disclosed here.
# The rate of degradation may be determined by calculating the number of pmoles of chloride ions removed from PCE and subsequently from the amounts of the daughter products generated. The calculation may be performed as follows: Chloride (μmoles)=[…]−4×PCE (μmoles)−3×TCE (pmoles)−2×DCE (μmoles)−VC (μmoles)
# The alternative chloride calculation is: Chloride (μmoles)=TCE (μmoles)+2×DCE (μmoles)+3×VC (μmoles)+4×Ethene (μmoles)
# Next, the dechlorination rate may be determined for each bottle at each time by dividing the Chloride generated by the time (days). The data may be then normalized to the lactate control by taking the ratio of Chloride Rate (pmoles/day) and the Lactate Control Chloride Rate (pmoles/day). This ratio is called Relative Rate and is dimensionless.
# As shown in the Examples, a paired t-test has been conducted to calculate the probability that the Relative Rate of one group (i.e. with Nutrient) is greater than the other group (i.e. without Nutrient). The null hypothesis is that the underlying means of the two paired groups are equal. The Probability that one group has higher Relative Rates than the other group is shown in various tables in the Examples.
# The following components were used in the system for bioremediating contaminated ground water microcosms in Examples 2-8: • 160 milliliter (ml) stoppered serum bottles • 100 ml of anaerobic culture medium, groundwater containing an excess of bioavailable phosphorus and nitrogen at 0.5 mM Phosphate and 1 mM ammonium degassed with a nitrogen sparge • Nominally 1 gram of limestone • 19.54 micromoles (pmoles) Perchloroethene (PCE) • An excess of various electron donors were utilized • 3 ml of inoculum containing dechlorinating bacteria known to convert PCE to ethene. […]
smiles,measurement,setting,value
"CC(O)C(=O)[O-].[Na+] (centres unmarked) [Lactate Control, sodium lactate]",% of e^− used for dechlor.,[1],7%
same,Chloride,[1]; Efficiency by COD Analysis,64.63 µmol
same,Relative Efficiency,[1]; relative to Lactate Control,100%
same,Cl^− Rate ± s.d.,[2]; 0 days,0.00 ± 0.00 µmol
same,Cl^− ± s.d.,[2]; 0 days,0.00 ± 0.00 µmol
same,DCE ± s.d.,[2]; 0 days,0.00 ± 0.00 µmol
same,Ethene ± s.d.,[2]; 0 days,0.00 ± 0.00 µmol
same,PCE ± s.d.,[2]; 0 days,20.80 ± 0.95 µmol
same,TCE ± s.d.,[2]; 0 days,0.00 ± 0.00 µmol
same,VC ± s.d.,[2]; 0 days,0.00 ± 0.00 µmol
same,Cl^− Rate ± s.d.,[2]; 21 days,0.13 ± 0.05 µmol
same,Cl^− ± s.d.,[2]; 21 days,2.83 ± 1.04 µmol
same,DCE ± s.d.,[2]; 21 days,0.31 ± 0.18 µmol
same,Ethene ± s.d.,[2]; 21 days,0.07 ± 0.01 µmol
same,PCE ± s.d.,[2]; 21 days,18.6 ± 0.45 µmol
same,TCE ± s.d.,[2]; 21 days,1.91 ± 0.71 µmol
same,VC ± s.d.,[2]; 21 days,0.00 ± 0.00 µmol
same,Cl^− Rate ± s.d.,[2]; 35 days,0.26 ± 0.10 µmol
same,Cl^− ± s.d.,[2]; 35 days,8.95 ± 3.33 µmol
same,DCE ± s.d.,[2]; 35 days,1.39 ± 0.72 µmol
same,Ethene ± s.d.,[2]; 35 days,0.07 ± 0.00 µmol
same,PCE ± s.d.,[2]; 35 days,10.80 ± 1.36 µmol
same,TCE ± s.d.,[2]; 35 days,5.91 ± 1.90 µmol
same,VC ± s.d.,[2]; 35 days,0.00 ± 0.00 µmol
same,Cl^− Rate ± s.d.,[2]; 50 days,0.49 ± 0.10 µmol
same,Cl^− ± s.d.,[2]; 50 days,24.59 ± 5.08 µmol
same,DCE ± s.d.,[2]; 50 days,9.70 ± 2.99 µmol
same,Ethene ± s.d.,[2]; 50 days,0.07 ± 0.00 µmol
same,PCE ± s.d.,[2]; 50 days,3.13 ± 1.26 µmol
same,TCE ± s.d.,[2]; 50 days,4.92 ± 1.03 µmol
same,VC ± s.d.,[2]; 50 days,0.00 ± 0.00 µmol
same,Cl^− Rate ± s.d.,[2]; 79 days,0.53 ± 0.02 µmol
same,Cl^− ± s.d.,[2]; 79 days,42.00 ± 1.93 µmol
same,DCE ± s.d.,[2]; 79 days,20.84 ± 0.96 µmol
same,Ethene ± s.d.,[2]; 79 days,0.07 ± 0.00 µmol
same,PCE ± s.d.,[2]; 79 days,0.00 ± 0.00 µmol
same,TCE ± s.d.,[2]; 79 days,0.04 ± 0.07 µmol
same,VC ± s.d.,[2]; 79 days,0.00 ± 0.01 µmol
same,Cl^− Rate ± s.d.,[2]; 138 days,0.24 ± 0.01 µmol
same,Cl^− ± s.d.,[2]; 138 days,33.42 ± 1.26 µmol
same,DCE ± s.d.,[2]; 138 days,16.55 ± 0.64 µmol
same,Ethene ± s.d.,[2]; 138 days,0.06 ± 0.00 µmol
same,PCE ± s.d.,[2]; 138 days,0.00 ± 0.00 µmol
same,TCE ± s.d.,[2]; 138 days,0.00 ± 0.00 µmol
same,VC ± s.d.,[2]; 138 days,0.03 ± 0.03 µmol
same,Relative Rate,"[2]; bottle 1, 21 days",0.78
same,Relative Rate,"[2]; bottle 1, 35 days",0.63
same,Relative Rate,"[2]; bottle 1, 50 days",0.86
same,Relative Rate,"[2]; bottle 1, 79 days",1.08
same,Relative Rate,"[2]; bottle 1, 138 days",0.51
same,Relative Rate,"[2]; bottle 2, 21 days",1.43
same,Relative Rate,"[2]; bottle 2, 35 days",1.37
same,Relative Rate,"[2]; bottle 2, 50 days",1.24
same,Relative Rate,"[2]; bottle 2, 79 days",1.13
same,Relative Rate,"[2]; bottle 2, 138 days",0.49
same,Relative Rate,"[2]; bottle 3, 21 days",0.80
same,Relative Rate,"[2]; bottle 3, 35 days",1.00
same,Relative Rate,"[2]; bottle 3, 50 days",0.90
same,Relative Rate,"[2]; bottle 3, 79 days",1.03
same,Relative Rate,"[2]; bottle 3, 138 days",0.48
same,dechlorination kinetics / completeness of dechlorination (in words),[2]; through 138 days,statistically higher dechlorination kinetics as compared to PS1 and molasses
same,Relative Rate,"[2]; time 21 days, bottles 1-3",1.43 and 0.80 and 0.78
same,Relative Rate,"[2]; time 50 days, bottles 1-3",1.24 and 0.90 and 0.86
same,Relative Rate,"[2]; time 79 days, bottles 1-3",1.08 and 1.13 and 1.03
same,Relative Rate,"[2]; time 138 days, bottles 1-3",0.51 and 0.49 and 0.48

# From patent US10179355B2, “Bioremediation enhancing agents and methods of use” (JRW BIOREMEDIATION, LLC, priority 2007, dated 2019)
